Measurements taken from patent US20050203163A1, “Farnesyl transferase inhibitors in combination with HMG CoA reductase inhibitors for the treatment of cancer” (Pfizer Inc, priority 1997, published 2005).

Tested on: K-Ras 4B
Test: Prenylation of K-ras 4B in intact cells (immunoblot, densitometric scanning)
Format: cell-based
Details: 5 μM hydrolysed lovastatin alone (Compound 1 at 0); NIH-3T3 transfectant overexpressing mutant K-Ras 4B; 18 hours at 37° C.

CC[C@H](C)C(=O)O[C@H]1C[C@@H](C)C=C2C=C[C@H](C)[C@H](CC[C@@H]3C[C@@H](O)CC(=O)O3)[C@H]21 [Lovastatin, lovastatin]
% Inhibition OF K-Ras 4B Prenylation: 23%
